Paper PMC10447287, “Optimisation of Pharmaceutical Cocrystal Dissolution Performance through a Synergistic Precipitation Inhibition” (Pharmaceutical Research, 2023)

Columns and labels:
Type in all cases: physicochemical
[1] = Dissolution tests of powders in DDW with predissolved polymer or combination (USP type II paddle); details: for incongruent indicator k(t) (molar FFA/NIC in solution): neat cocrystal
Procedure: In vitro dissolution tests were performed with a USP type II paddle apparatus (DT 126 light, Erweka GmbH, Germany) at 37 ± 0.5°C with a paddle speed of 50 rpm in 400 mL of DDW in the absence and presence of a predissolved polymer (i.e., 0.2 mg/mL of PVP-VA, 1 mg/mL of PEG, 0.2 mg/mL of SLP) or a combination of two polymers (i.e., 0.2 mg/mL PVP-VA + 1 mg/mL PEG, […]).
71.7 mg of FFA-NIC cocrystal powders with the equivalent of 50 mg FFA I powders were used in each of the dissolution tests. Samples of 1 ± 0.1 mL were withdrawn from the dissolution vessel at the predefined time points of 5, 10, 15, 30, 60, 120, 180 and 240 min. The supernatant of each of the samples was separated from the excess solids by centrifugation at 13,000 RPM for 1 min in an MSE Micro Centaur. HPLC was used to determine the concentrations of FFA and NIC in solution. Solid residues obtained from the experiments were dried at room temperature and analysed by PXRD. All experiments were repeated in triplicate.
For comparison, the above dissolution tests were also repeated using 50 mg of pure FFA I powders and 82.0 mg of FFA-TP cocrystal powders.
(§1) DPP was used to evaluate the dissolution profile of the test powders in comparison to a reference system, which is defined as,4 DPP=AUCC(t)-AUCCR(t)/AUCCR(t)×100% where AUCC(t) is the area under the curve (AUC) of a dissolution profile C(t) , indicating the amount of drug dissolved is maintained over the period of the dissolution time from 0 to t, and AUCCR(t) is the AUC of a reference dissolution profile CR(t) .
(§2) The solids were scanned by D2 phaser diffractometer (Bruker U.K. Limited, Coventry, UK) with […] radiation operating at voltage of 30 kV and current of 10 mA. The scanning angle ranged from 2°-40° of 2θ. The scanning time per step was 0.4 s. The scan step size was 0.02° of 2θ.

[2] = Dissolution tests of powder mixtures of FFA-NIC cocrystal with polymers in PBS pH 4.5 (non-sink); details: for incongruent indicator k(t) (molar FFA/NIC in solution): PBS pH 4.5, neat cocrystal; for FFA DPP: reference neat cocrystal in PBS pH 4.5
Procedure: Similarly, in vitro dissolution tests of the powder mixtures of 71.7 mg of the FFA-NIC cocrystals with an individual polymer or a combination in PBS pH 4.5 or PBS pH 6.8 were conducted in triplicate. […], 400 mg of PEG, […], corresponding to their predissolved concentrations used in Section "Dissolution Tests of FFA, the Neat FFA-TP Cocrystal or FFA-NIC Cocrystal Powders in DDW in the Absence and Presence of a Predissolved Polymer or a Combination".
The solid residues obtained from the experiments in PBS pH 4.5 were dried at room temperature and analysed by PXRD.
as §1, §2

[3] = Dissolution tests of powder mixtures of FFA-NIC cocrystal with polymers in PBS pH 6.8 (sink); details: for FFA DPP: reference neat cocrystal in PBS pH 6.8; for incongruent indicator k(t) (molar FFA/NIC in solution): PBS pH 6.8, sink conditions
Procedure: Similarly, in vitro dissolution tests of the powder mixtures of 71.7 mg of the FFA-NIC cocrystals with an individual polymer or a combination in PBS pH 4.5 or PBS pH 6.8 were conducted in triplicate. The amount of a polymer used in the powder mixture was 80 mg of PVP-VA, 400 mg of PEG, or 80 mg of SLP, corresponding to their predissolved concentrations used in Section "Dissolution Tests of FFA, the Neat FFA-TP Cocrystal or FFA-NIC Cocrystal Powders in DDW in the Absence and Presence of a Predissolved Polymer or a Combination".
as §1

[4] = DDW, combination of predissolved PVP-VA and PEG
[5] = DDW, no polymer, powder dissolution

solid residues after dissolution tests (PXRD) ([1]; DDW in the absence or presence of predissolved polymers): FFA III | FFA concentration at 240 min [1, 4]: 11.44 µg/mL | maximum FFA concentration [1, 4]: 14.28 µg/mL | time to generate supersaturated state of FFA concentration [1, 4]: ≤ 5 min | solid residues after dissolution tests (PXRD) ([1]; DDW, combinations of predissolved PVP-VA and SLP at various concentrations except SLP (0.2 mg/mL) + PVP-VA (0.8 mg/mL)): FFA III alone | incongruent indicator k(t) (molar FFA/NIC in solution) ([1]; DDW, at 5 min): 0.06 | incongruent indicator k(t) (molar FFA/NIC in solution) ([1]; DDW, at 60 min): 0.08 | FFA concentration reached within 60 min [1, 5]: 10.23 µg/mL | FFA concentration, constant level after 60 min [1, 5]: 10.78 µg/mL | time for FFA concentration to reach aqueous equilibrium solubility ([1]; DDW, predissolved 0.2 mg/mL PVP-VA): ≤ 15 min | maximum FFA concentration ([1]; DDW, predissolved 0.2 mg/mL PVP-VA, at 60 min): 12.93 µg/mL | FFA DPP (dissolution performance parameter) ([1]; DDW, predissolved PEG (1 mg/mL), 0-4 h, reference same powder in DDW): -7% | FFA DPP (dissolution performance parameter) ([1]; DDW, predissolved PVP-VA (0.2 mg/mL), 0-4 h, reference same powder in DDW): 19% | NIC release from cocrystal powders ([1]; DDW, predissolved PVP-VA or its combination with PEG or SLP): released completely | FFA concentration in solution after 4 h ([1]; DDW, predissolved SLP (0.2 mg/mL)): 26.18 µg/mL | FFA DPP (dissolution performance parameter) ([1]; DDW, predissolved SLP (0.2 mg/mL) + PVP-VA (0.1 mg/mL), reference DDW): 112% | FFA DPP (dissolution performance parameter) ([1]; DDW, predissolved SLP (0.2 mg/mL) + PVP-VA (0.2 mg/mL), 0-4 h, reference same powder in DDW): 160% | FFA DPP (dissolution performance parameter) ([1]; DDW, predissolved SLP (0.2 mg/mL) + PVP-VA (0.3 mg/mL), reference DDW): 296% | FFA DPP (dissolution performance parameter) ([1]; DDW, predissolved SLP (0.2 mg/mL) + PVP-VA (0.4 mg/mL), reference DDW): 345% | FFA DPP (dissolution performance parameter) ([1]; DDW, predissolved SLP (0.2 mg/mL) + PVP-VA (0.8 mg/mL), reference DDW): 310% | FFA DPP (dissolution performance parameter) ([1]; DDW, predissolved SLP (0.2 mg/mL), 0-4 h, reference same powder in DDW): 67% | NIC release from cocrystal powders ([1]; DDW, single polymer of PEG or SLP): not complete | solid residues after dissolution tests (PXRD) ([1]; SLP predissolved DDW): both FFA III and FFA-NIC cocrystal | incongruent indicator k(t) (molar FFA/NIC in solution) ([2]; at 5 min): 0.03 | incongruent indicator k(t) (molar FFA/NIC in solution) ([2]; at 60 min): 0.07 | FFA DPP ([2]; PBS pH 4.5, powder mixture with PEG (1 mg/mL) + PVP-VA (0.2 mg/mL)): 36% | FFA DPP ([2]; PBS pH 4.5, powder mixture with PEG (1 mg/mL)): 11% | FFA concentration at the end of the test ([2]; PBS pH 4.5, powder mixture with PVP-VA): 17.38 µg/mL | FFA DPP ([2]; PBS pH 4.5, powder mixture with PVP-VA (0.2 mg/mL)): 92% | maximum supersaturated FFA concentration ([2]; PBS pH 4.5, powder mixture with PVP-VA, at 60 min): 19.65 µg/mL | FFA DPP ([2]; PBS pH 4.5, powder mixture with SLP (0.1 mg/mL) + PVP-VA (0.4 mg/mL)): 150% | FFA DPP ([2]; PBS pH 4.5, powder mixture with SLP (0.2 mg/mL) + PVP-VA (0.2 mg/mL)): 159% | FFA DPP ([2]; PBS pH 4.5, powder mixture with SLP (0.2 mg/mL) + PVP-VA (0.4 mg/mL)): 179% | FFA DPP ([2]; PBS pH 4.5, powder mixture with SLP (0.2 mg/mL) + PVP-VA (0.8 mg/mL)): 204% | FFA DPP ([2]; PBS pH 4.5, powder mixture with SLP (0.2 mg/mL)): 2% | solid residues after dissolution tests (PXRD) ([2]; all dissolution tests in PBS pH 4.5): FFA III solids were crystallised | solid residues after dissolution ([3]; PBS pH 6.8, 37°C, after 4 h): no solid residue | FFA DPP ([3]; PBS pH 6.8, powder mixture with PVP-VA (0.2 mg/mL)): 11% | FFA DPP ([3]; PBS pH 6.8, powder mixture with PVP-VA (0.4 mg/mL)): 7% | incongruent constant k(t) ([3]; PBS pH 6.8, powder mixture with PVP-VA, at 60 min): > 0.94 | FFA DPP ([3]; PBS pH 6.8, powder mixture with SLP (0.1 mg/mL) + PVP-VA (0.4 mg/mL)): 8% | FFA DPP ([3]; PBS pH 6.8, powder mixture with SLP (0.2 mg/mL) + PVP-VA (0.2 mg/mL)): 6% | FFA DPP ([3]; PBS pH 6.8, powder mixture with SLP (0.2 mg/mL) + PVP-VA (0.4 mg/mL)): 9% | FFA DPP ([3]; PBS pH 6.8, powder mixture with SLP (0.2 mg/mL)): -0.1% | incongruent indicator k(t) (molar FFA/NIC in solution) ([3]; at 5 min): 0.75 | incongruent indicator k(t) (molar FFA/NIC in solution) ([3]; at the end of dissolution): 0.94
Structure (SMILES): NC(=O)c1cccnc1.O=C(O)c1ccccc1Nc1cccc(C(F)(F)F)c1 [FFA-NIC cocrystal]
solid residues after dissolution tests (PXRD) ([1]; DDW, predissolved SLP (0.2 mg/mL) and PVP-VA (0.8 mg/mL)): mixtures of FFA III and FFA-NIC cocrystal | solid residues after dissolution tests (PXRD) ([2]; PBS pH 4.5, groups SLP (0.1 mg/mL) + PVP-VA (0.4 mg/mL) and SLP (0.2 mg/mL) + PVP-VA (0.8 mg/mL)): FFA-NIC cocrystals were also found in the solid residues
